CC12CCC(CC1=O)C2(C)C (stereo not drawn)
Settings | solubility (mole fraction)
in acetone, 303.15 K | 0.553
in acetone, 308.15 K | 0.571
in acetone, 313.55 K | 0.594
in acetone, 319.25 K | 0.614
in acetone, 323.15 K | 0.627
in ethanol, 303.15 K | 0.365
in ethanol, 308.15 K | 0.396
in ethanol, 313.15 K | 0.412
in ethanol, 318.15 K | 0.451
in ethanol, 322.95 K | 0.508
in ethanol, 327.95 K | 0.538
in ethanol, 333.35 K | 0.588
in ethanol, 338.15 K | 0.63
in ethanol, 343.15 K | 0.699
in p-cymene, 303.85 K | 0.58
in p-cymene, 308.05 K | 0.589
in p-cymene, 313.15 K | 0.601
in p-cymene, 317.95 K | 0.609
in p-cymene, 323.65 K | 0.624
in p-cymene, 328.15 K | 0.631
in p-cymene, 333.35 K | 0.641
in p-cymene, 337.95 K | 0.652
in p-cymene, 343.05 K | 0.664
in p-xylene, 303.05 K | 0.6
in p-xylene, 308.15 K | 0.637
in p-xylene, 313.15 K | 0.66
in p-xylene, 318.15 K | 0.683
in p-xylene, 323.25 K | 0.714
in p-xylene, 327.85 K | 0.736
in p-xylene, 328.15 K | 0.739
in p-xylene, 333.15 K | 0.77
in p-xylene, 338.35 K | 0.795
in p-xylene, 343.15 K | 0.824
